According to PMC6950057, “Toxicity, Pharmacokinetics, and Gut Microbiome of Oral Administration of Sesterterpene MHO7 Derived from a Marine Fungus” (Marine Drugs, 2019):
Where two headings read alike, the source gives them in different places.

Assays:
[1] = Log D by shaking flask method (n-octanol/phosphate buffer); type: physicochemical; conditions: 37 °C
Experimental: An HPLC system (Shimadzu, Japan) was equipped with a LC-20AD binary pump system, a SIL-20AD auto sampler, a CBM-20A system controller, and a CTO-20A oven. Separation of MHO7 and IS from endogenous substances was carried out on an Agilent Zorbax XDB C18 column (5 μm, 250 × 4.6 mm, Agilent, Pal Alto, CA, USA), which was kept at 30 °C. The mobile phase was composed of 30% phase A (water) and 70% phase B (acetonitrile) with a flow rate of 1 mL·min^−1. The inject volume of the sample solution was 10 μL.
The phases of distilled water and n-octanol were saturated with each other by shaking for 48 h with 250 rpm in a shaking water bath prior to use. Solutions of MHO7 was prepared in concentration of 10 mM·L^−1 in n-octanol. Accurately measured amounts of the two solvents with necessary quantity of MHO7 were placed in a 5.0 mL centrifuge tube; then, the mixture was carried out at 250 rpm and designated temperature in the shaking water bath for 48 h to afford complete phase separation. The samples of both phases were collected at 0, 4, 8, 12, 24, 30, 36 and 48 h, diluted with methanol (1:1, V) and determined by HPLC with the detection wavelength of 234 nm. Each set of solvent systems for experimental logP/D value was the mean of the three determinations.

KM mice = assay: Acute toxicity / maximum tolerated dose, oral; type: in vivo; parameters: Body weight / Heart weight / Liver weight / spleen weight / lung weight / kidney weight / Reproductive organs weight / brain weight: unit not given here; conditions: for Body weight / Heart weight / Liver weight / Reproductive organs weight / brain weight / kidney weight / lung weight / spleen weight: 2400 mg/kg
Experimental: (§1) Male and female KM mice of 8–10 weeks of age (20–22 g) were used in acute toxicity experiment and only female KM mice were subjected in other animal experiments. All mice were purchased from the Vital River Laboratory Animal Technology Co. Ltd. (Beijing, China). The mice were bred in a standard environment (23 ± 1 °C; humidity of 60 ± 5%) with a 12-h light/dark cycle and food and water were provided ad libitum. All animal protocols were approved by the Animal Care and Use Committee of Wuhan University Center for Animal Experiment ABSL-Ⅲ Laboratory and complied with the Guide for the Care and Use of Laboratory Animals (NIH publication, 8th edition, 2011). In total, 130 mice were used for in vivo studies under the ethical approved protocols.
(§2) Male and female KM mice of 8–10 weeks of age (20–22 g) were used in acute toxicity experiment. After animals were acclimatized for 1 week, 20 female and 20 male mice were randomly and evenly divided into four groups. The mice of acute toxicity experiment were fasted overnight and administered by the oral dose of MHO7 (2400 mg·kg^−1, bw) diluted in corn oil the next morning. Then, mice were placed with free access to chow and water. […] The number surviving and their behaviors was also recorded every day.

[2] = Acute toxicity / maximum tolerated dose, oral; type: in vivo, mice; parameters: Body weight / Heart weight / Liver weight / spleen weight / lung weight / kidney weight / Reproductive organs weight / brain weight: unit not given here; conditions: both sexes, mouse, in vivo, 2400 mg·kg^−1; oral administration, male and female KM mice; read-out: maximum tolerable dose (MTD)
Experimental: as §1, §2

[3] = Plasma pharmacokinetics after single oral dose; type: in vivo; conditions: mice plasma, single oral 500 mg·kg^−1, female mice
Experimental: Ninety female KM mice of 8–10 weeks of age (20–22 g) were divided randomly into 15 groups, and, after fasting for 12 h, the mice in other experiments were oral administrated at the dose of 500 mg·kg^−1 bw. About 500 μL blood samples were collected at 0.5, 1, 2, 3, 4, 5, 6, 8, 10, 12, 16, 20, 24, 30 and 36 h into heparinized tubes after the intragastric administration of MHO7. All blood samples were immediately centrifuged at 8000 g for 5 min and the resulting plasma was transferred and then processed as described in sample preparation for the analysis by LC-MS/MS. MHO7 levels in plasma were quantified by HPLC–MS/MS. The calibration curve was constructed by plotting the peak area ratio of MHO7 to the internal standard and the linearity was determined by weighted (1/x) linear regression analysis. The regression equation of the calibration curve was then used to calculate the concentration of MHO7 in the plasma. QC samples and standard curve series solutions were prepared in the same way of blank plasma. The concentrations of HQC, MQC, and LQC were 5, 0.5, and 0.05 μM·L^−1, respectively, and the concentrations of standard curve series solutions were 5, 2.5, 1, 0.5, 0.25, 0.1, 0.05, and 0.01 μM·L^−1.
Data for each group are presented as mean ± SD. Statistical significance of different formulations were measured by one-way analysis of variance (ANOVA) followed by the Tukey Kramer multiple comparison test, using SPSS software version 14.0 (SPSS, Chicago, IL, USA), and the statistical significance was expressed by a p-value of less than 0.05. The main pharmacokinetic parameters of MHO7 was fitted by the average mean of a group in each time point with the Phoenix WinNonLin software version 6.3 (Pharsight, Cary, NC, USA). The gut microbiome analysis was performed using the free online platform of Majorbio Cloud Platform (www.majorbio.com).

[4] = tested on: breast cancer cells (MCF-7); parameters: method as in PMID 31175940; conditions: mechanism of down regulating estrogen receptor alpha (ERα); cited from earlier work

## CC(C)=C/C=C/[C@H](C)[C@H]1CC[C@]2(C)C[C@@H]3C(C)=CC(=O)[C@H]3/C(C=O)=C\C[C@@H]12 [MHO7, 6-epi-ophiobolin G]
[1]; octanol/PBS pH 1.5, 4 h, read-out: Log P/D Value O/P (pH 1.5)
  logD at 4 h: 1.29 ± 0.02
[1]; octanol/PBS pH 1.5, 8 h, read-out: Log P/D Value O/P (pH 1.5)
  logD at 8 h: 1.22 ± 0.04
[1]; octanol/PBS pH 1.5, 12 h, read-out: Log P/D Value O/P (pH 1.5)
  logD at 12 h: 1.13 ± 0.03
[1]; octanol/PBS pH 1.5, 24 h, read-out: Log P/D Value O/P (pH 1.5)
  logD at 24 h: 1.13 ± 0.02
[1]; octanol/PBS pH 1.5, 30 h, read-out: Log P/D Value O/P (pH 1.5)
  logD at 30 h: 1.12 ± 0.15
[1]; octanol/PBS pH 1.5, 36 h, read-out: Log P/D Value O/P (pH 1.5)
  logD at 36 h: 1.12 ± 0.03
[1]; octanol/PBS pH 1.5, 48 h, read-out: Log P/D Value O/P (pH 1.5)
  logD at 48 h: 1.12 ± 0.03
[1]; octanol/PBS pH 5.0, 4 h, read-out: Log P/D Value O/P (pH 5.0)
  logD at 4 h: 1.15 ± 0.02
[1]; octanol/PBS pH 5.0, 8 h, read-out: Log P/D Value O/P (pH 5.0)
  logD at 8 h: 1.03 ± 0.05
[1]; octanol/PBS pH 5.0, 12 h, read-out: Log P/D Value O/P (pH 5.0)
  logD at 12 h: 0.95 ± 0.03
[1]; octanol/PBS pH 5.0, 24 h, read-out: Log P/D Value O/P (pH 5.0)
  logD at 24 h: 0.95 ± 0.04
[1]; octanol/PBS pH 5.0, 30 h, read-out: Log P/D Value O/P (pH 5.0)
  logD at 30 h: 0.95 ± 0.03
[1]; octanol/PBS pH 5.0, 36 h, read-out: Log P/D Value O/P (pH 5.0)
  logD at 36 h: 0.93 ± 0.03
[1]; octanol/PBS pH 5.0, 48 h, read-out: Log P/D Value O/P (pH 5.0)
  logD at 48 h: 0.93 ± 0.02
[1]; octanol/PBS pH 7.4, 4 h, read-out: Log P/D Value O/P (pH 7.4)
  logD at 4 h: 1.39 ± 0.03
[1]; octanol/PBS pH 7.4, 8 h, read-out: Log P/D Value O/P (pH 7.4)
  logD at 8 h: 1.37 ± 0.05
[1]; octanol/PBS pH 7.4, 12 h, read-out: Log P/D Value O/P (pH 7.4)
  logD at 12 h: 1.31 ± 0.03
[1]; octanol/PBS pH 7.4, 24 h, read-out: Log P/D Value O/P (pH 7.4)
  logD at 24 h: 1.29 ± 0.02
[1]; octanol/PBS pH 7.4, 30 h, read-out: Log P/D Value O/P (pH 7.4)
  logD at 30 h: 1.27 ± 0.04
[1]; octanol/PBS pH 7.4, 36 h, read-out: Log P/D Value O/P (pH 7.4)
  logD at 36 h: 1.26 ± 0.05
[1]; octanol/PBS pH 7.4, 48 h, read-out: Log P/D Value O/P (pH 7.4)
  logD at 48 h: 1.26 ± 0.01
KM mice; female mice
  Body weight: 33.30±2.1
  Heart weight: 0.15±0.01
  Liver weight: 1.49±0.09
  Reproductive organs weight: 0.21±0.05
  brain weight: 0.40±0.07
  kidney weight: 0.46±0.02
  lung weight: 0.22±0.02
  spleen weight: 0.13±0.05
KM mice; male mice
  Body weight: 38.75±2.96
  Heart weight: 0.18±0.02
  Liver weight: 2.39±0.38
  Reproductive organs weight: 0.19±0.02
  brain weight: 0.42±0.06
  kidney weight: 0.58±0.06
  lung weight: 0.22±0.03
  spleen weight: 0.15±0.03
KM mice; oral 2400 mg·kg^−1
  weight ranges (Table S5), treatment vs control group: no significant difference
KM mice; oral 2400 mg·kg^−1, 14 days observation
  observed toxicity: No obvious toxicity was observed
KM mice; oral 2400 mg·kg^−1, after seven days
  body weight, MHO7 group vs control group: no significant difference
KM mice; oral 2400 mg·kg^−1, female and male mice, returned to normal within two days
  diarrhea: a small number of animals with diarrhea was found during the first day
KM mice; oral administration 2400 mg·kg^−1
  tolerability: well-tolerated
[2]
  MTD at 2 weeks: 2400 mg/kg
[3]; KM, mouse
  AUC: 10500 ng·h/mL
  Cmax: 1380 ng/mL
  MRT: 8.76 h
  half-life: 6.97 h
[3]; KM, mouse, read-out: Lambda_z (converted)
  k el: 2.78e-05 s⁻¹
[3]; female, KM, mouse, plasma, po, 500 mg/kg
  Tmax: ~8 h
[3]
  V/F: 479.02 L/kg
[4]
  antitumor activity: potent antitumor activity
